Experimental data as given in patent US9233951B2, “Heterocyclic compounds as pesticides” (Bayer Intellectual Property GmbH, priority 2010, dated 2016).
Like-named read-outs stand apart in the source and are kept apart here.

Experiments:
[1] = tested on: green peach aphid (Myzus persicae); assay: Myzus persicae test (spray treatment); assay type: in vivo; conditions: foliar, 144 h, read-out: efficacy in %
Method: Myzus persicae Test (Spray Treatment)
• Solvent: 78 parts by weight of acetone • 1.5 parts by weight of dimethylformamide • Emulsifier: 0.5 part by weight of alkylaryl polyglycol ether
To prepare an appropriate active ingredient preparation, 1 part by weight of active ingredient is mixed with the stated amounts of solvent and emulsifier, and the concentrate is diluted with emulsifier-containing water to the desired concentration. Discs of Chinese cabbage (Brassica pekinensis) infested by all stages of the green peach aphid (Myzus persicae) are sprayed with an active ingredient preparation of the desired concentration.
After 6 days, the efficacy in % is determined. 100% means that all of the aphids have been killed; 0% means that none of the aphids have been killed.

physchem = assay type: physicochemical
Method: 1 Method Description for Determination of the logP values and Mass Detection
Eluents for determination in the acidic range (pH 3.4): • Eluent A: acetonitrile+1 ml formic acid/l.
The λmax values were determined in the maxima of the chromatographic signals using the UV spectra from 200 nm to 400 nm. The mass was detected (M^+, m/z) by means of an Agilent MSD mass spectrometer.

[2] = application rate 500 g/ha, Chinese cabbage leaf discs sprayed, after 6 days, 100% = all aphids killed
[3] = reverse-phase HPLC column (C 18), pH 3.4, HPLC, reverse-phase C 18, acidic range pH 3.4, 55° C., table of compounds, read-out: logP (HCO2H)
[4] = reverse-phase HPLC column (C 18), pH 3.4, HPLC-MS value printed in the preparation example text, acidic range pH 3.4, read-out: logP (HCOOH)
[5] = pH 3.4, HPLC-MS value printed in the preparation example text, acidic range pH 3.4, read-out: logP (HCOOH)

chromatographic logP (physchem; [3]) | chromatographic logP (physchem; [4]) | SMILES | pest or weed control at 500 g/ha [1, 2] | also measured
0.72 |  | C#CCNC(=O)c1ccc(-c2cccnc2)o1 [Compound 22] | 100% | 
 | 0.35 | O=C(O)c1csc(-c2cccnc2)n1 [2-(Pyridin-3-yl)-1,3-thiazole-4-carboxylic acid] |  | 
0.8 |  | N#CCNC(=O)c1csc(-c2cccnc2)n1 [Compound 14] | 80% | 
 | -0.06 | O=C(O)c1cnc(-c2cccnc2)o1 [2-(Pyridin-3-yl)-1,3-oxazole-5-carboxylic acid] |  | 
 | 0.45 | CCOC(=O)c1nc(C)c(-c2cccnc2)s1 [Ethyl 4-methyl-5-(3-pyridinyl)-1,3-thiazole-2-carboxylate] |  | 
0.78 | 0.78 | CN(C)C(=O)c1cc(-c2cccnc2)no1 [Compound 2, N,N-Dimethyl-3-(pyridin-3-yl)-1,2-oxazole-5-carboxamide] | 100% | 
1.62 | 1.62 | Cc1cc(-c2cccnc2)sc1C(=O)NCC(F)(F)F [Compound 5, 3-Methyl-5-(pyridin-3-yl)-N-(2,2,2-trifluoroethyl)thiophene-2-carboxamide] |  | 
 | 1.26 | COC(=O)c1ccn(-c2cccnc2)c1 [Methyl 1-(pyridin-3-yl)pyrrole-3-carboxylate] |  | 
 | 1.21 | CCOC(=O)c1nnc(-c2cccnc2)o1 [Ethyl 5-(pyridin-3-yl)-1,3,4-oxadiazole-2-carboxylate] |  | 
 | 1.03 | CCOC(=O)c1ncn(-c2cccnc2)c1C [Ethyl 5-methyl-1-(pyridin-3-yl)-1H-imidazole-4-carboxylate] |  | 
1 |  | CCN(C)C(=O)c1ccc(-c2cccnc2)o1 [Compound 11] | 100% | 
 | 0.07 | O=C(O)c1coc(-c2cccnc2)c1 [5-(Pyridin-3-yl)furan-3-carboxylic acid] |  | 
1.39 |  | O=C(NCC1CC1)c1ccc(-c2cccnc2)o1 [Compound 30] | 100% | 
 | -0.03 | O=C(O)c1cn(-c2cccnc2)nn1 [1-(Pyridin-3-yl)-1H-1,2,3-triazole-4-carboxylic acid] |  | 
1.39 |  | CSC[C@H](C)NC(=O)c1nnc(-c2cccnc2)o1 [Compound 35] | 80% | 
 | 1.96 | Cc1cc(-c2cccnc2)sc1C(=O)O [3-Methyl-5-(pyridin-3-yl)thiophene-2-carboxylic acid] |  | 
1.43 | 1.43 | CN(C)C(=O)c1cnc(-c2cccnc2)o1 [Compound 25, N,N-Dimethyl-2-(pyridin-3-yl)-1,3-oxazole-5-carboxamide] | 90% | 
1.51 | 1.51 | O=C(NCC(F)(F)F)c1cc(-c2cccnc2)on1 [Compound 39, 5-(Pyridin-3-yl)-N-(2,2,2-trifluoroethyl)-1,2-oxazole-3-carboxamide] |  | 
0.83 |  | CCCNC(=O)c1ccc(-c2cccnc2)o1 [Compound 32] | 100% | 
1.58 |  | CCN(CC)C(=O)c1oc(-c2cccnc2)cc1C [Compound 24] | 90% | 
1.46 | 1.46 | Cc1nc(-c2cccnc2)oc1C(=O)NCC(F)(F)F [Compound 4, 4-Methyl-2-(pyridin-3-yl)-N-(2,2,2-trifluoroethyl)-1,3-oxazole-5-carboxamide] |  | 
 | 1.15 | CCOC(=O)c1cn(-c2cccnc2)nn1 [Ethyl 1-(pyridin-3-yl)-1H-1,2,3-triazole-4-carboxylate] |  | 
 | 3.33 | CCOC(=O)c1cc(-c2ccc(Cl)nc2)ns1 [Ethyl 3-(6-chloropyridin-3-yl)-1,2-thiazole-5-carboxylate] |  | 
1.74 | 1.74 | Cc1nc(C(=O)NCC(F)(F)F)sc1-c1cccnc1 [Compound 47, 4-Methyl-5-(3-pyridyl)-N-(2,2,2-trifluoroethyl)-1,3-thiazole-2-carboxamide] |  | 
1.21 | 1.21 | O=C(NCC(F)(F)F)c1nnc(-c2cccnc2)o1 [Compound 49, 5-(Pyridin-3-yl)-N-(2,2,2-trifluoroethyl)-1,3,4-oxadiazole-2-carboxamide] |  | 
1.33 |  | O=C(NCC(F)(F)F)c1cc(-c2cccnc2)no1 [Compound 40] |  | 
 | 0.56 | Cc1nc(-c2cccnc2)oc1C(=O)O [4-Methyl-2-(pyridin-3-yl)-1,3-oxazole-5-carboxylic acid] |  | 
1.13 | 1.13 | CSCCNC(=O)c1nnc(-c2cccnc2)o1 [Compound 34, N-(2-Methylmercaptoethyl)-5-(pyridin-3-yl)-1,3,4-oxazole-2-carboxamide] |  | 

More lines, now with the values behind:

SMILES | chromatographic logP (physchem; [3]) | chromatographic logP (physchem; [4]) | pest or weed control at 500 g/ha [1, 2] | also measured
O=C(NCC(F)(F)F)n1cnc(-c2cccnc2)c1 [Compound 1, 4-(Pyridin-3-yl)-N-(2,2,2-trifluoroethyl)-1H-imidazole-1-carboxamide] | 0.65 | 0.65 | 100% | 
O=C(NCC(F)(F)Br)c1ccc(-c2cccnc2)o1 [Compound 26] | 1.49 |  |  | 
O=C(NCC(F)(F)F)C1CN=C(c2cncnc2)S1 (stereo not shown) [Compound 45] | 1.4 |  | 100% | 
O=C(NCc1ncccn1)C1CN=C(c2cncnc2)S1 (racemic) [Compound 44, (R,S)-4,5-Dihydro-N-(pyrimidin-2-ylmethyl)-2-(5-pyrimidinyl)-1,3-thiazole-5-carboxamide] | 0.9 | 0.9 | 80% | 
O=C(NCC(F)(F)F)n1cc(-c2cccnc2)cn1 [Compound 48] |  | 0.95 |  | 
CNC(=O)c1ccc(-c2cccnc2)o1 [Compound 31, N-Methyl-5-(pyridin-3-yl)furan-2-carboxamide] | 0.42 | 0.42 |  | pest or weed control at 500 g/ha ([1]; in Brassica rapa): 100%
CC(F)(F)CNC(=O)c1cc(-c2cccnc2)ns1 [Compound 38, N-(2,2-Difluoropropyl)-3-(pyridin-3-yl)-1,2-thiazole-5-carboxamide] | 1.33 | 1.33 |  | pest or weed control at 500 g/ha ([1]; in Brassica rapa): 100%
O=C(NCC(F)F)c1csc(-c2cccnc2)n1 [Compound 33, N-(2,2-Difluoroethyl)-2-(pyridin-3-yl)-1,3-thiazole-4-carboxamide] |  |  |  | pest or weed control at 500 g/ha ([1]; in Brassica rapa): 100%; chromatographic logP (physchem; pH 3.4, HPLC, reverse-phase C 18, acidic range pH 3.4, 55° C., table of compounds, read-out: logP (HCO2H)): 1.22; chromatographic logP (physchem; [5]): 1.18
O=C(NCC=CCl)c1ccc(-c2cccnc2)o1 [Compound 18] | 1.27 |  | 90% | logP (HCO2H) (physchem; HPLC, reverse-phase C 18, acidic range pH 3.4, 55° C., table of compounds): 1.33
CC(NC(=O)c1ccc(-c2cccnc2)o1)C1CC1 (stereo not shown) [Compound 8] | 1.36 |  | 80% | 
O=C(NCc1ncccn1)C1CN=C(c2cccnc2)S1 (stereo not shown) [Compound 43] |  |  | 100% | chromatographic logP (physchem; pH 3.4, logP (HCO2H)): 0.32
O=C(NCc1ncccn1)c1cc(-c2cccnc2)no1 [Compound 3] | 0.62 |  | 100% | 
O=C(O)c1cc(-c2ccc(Cl)nc2)ns1 [3-(6-Chloropyridin-3-yl)-1,2-thiazole-5-carboxylic acid] |  | 1.56 |  | 
CN(C)C(=O)C1CN=C(c2cncnc2)S1 (stereo not shown) [Compound 46] | 0.99 |  |  | 
O=C(c1ccc(-c2cccnc2)o1)N1CCCC1 [Compound 10] | 1.06 |  |  | 
Cc1c(C(=O)NCC(F)(F)F)ncn1-c1cccnc1 [Compound 50, 5-Methyl-1-(pyridin-3-yl)-N-(2,2,2-trifluoroethyl)-1H-imidazole-4-carboxamide] | 1.28 | 1.28 |  | 
O=C(O)C1CN=C(c2cccnc2)S1 (racemic) [(R,S)-4,5-Dihydro-2-(3-pyridinyl)-1,3-thiazole-5-carboxylic acid] |  |  |  | chromatographic logP (physchem; [5]): 0.75
O=C(NCC1CCCCC1)c1ccc(-c2cccnc2)o1 [Compound 15] | 2.02 |  |  | 
O=C(O)C1CN=C(c2cncnc2)S1 (racemic) [(R,S)-4,5-Dihydro-2-(5-pyrimidinyl)-1,3-thiazole-5-carboxylic acid] |  | 0.3 |  | 
NC(=O)c1csc(-c2cccnc2)n1 [Compound 28] |  |  | 100% | 
CC(F)(F)CNC(=O)c1cc(-c2ccc(Cl)nc2)ns1 [3-(6-Chloropyridin-3-yl)-N-(2,2-difluoropropyl)-1,2-thiazole-5-carboxamide] |  | 2.45 |  | 
O=C(NCC(F)(F)F)C1CN=C(c2cccnc2)S1 (stereo not shown) [Compound 42] |  |  |  | chromatographic logP (physchem; pH 3.4, logP (HCO2H)): 0.54
CN(C)C(=O)C1CN=C(c2cccnc2)S1 (racemic) [Compound 41, (R,S)-4,5-Dihydro-N,N-dimethyl-2-(3-pyridinyl)-1,3-thiazole-5-carboxamide] |  |  | 100% | 
